Results taken from patent US20240279225A1, “COMPOUNDS AND METHODS FOR THERANOSTIC TARGETING OF PARP ACTIVITY” (BOARD OF REGENTS, THE UNIVERSITY OF TEXAS SYSTEM, priority 2021, published 2024).
“Also recorded” adds a separate entry of the source. Read-outs that look alike come from different tables or passages of the source.

Experiments:
[1] = test system: MCF-7 cells stably transfected with MDR1 P-glycoprotein (Pgp); test: Cellular uptake of ^18F-Talazoparib, MCF-7 cells expressing MDR1 Pgp
Experimental: (§1) All experiments were performed in quadruplicate in a 24 well plate format. […] Experiment that abrogated metabolism were performed at 4° C., a temperature at which cellular membranes become less fluid and permeability is low. After 120 min, an aliquot of the cell media (200 μl) was obtained for gamma counting, the remaining media removed, and cells washed with MEBSS. Cells were then lysed with 1% SDS, 10 mM sodium borate for 30 min at room temperature. […] Protein contents were quantified using BCA protein assay kit (Thermos Scientific) according to the manufacture's protocol using bovine serum albumin (BSA) as the protein standard.

[2] = Shelf stability in PBS (10% EtOH); format: physicochemical
[3] = Stability in full human plasma at 37° C.; format: in vitro ADME
PARP1 [4] = molecular target: T1, PARP1 (Mus musculus, UniProt P11103); test: In vivo whole body biodistribution and blocking by small animal PET/CT
T1 construct: from tissue; host or cells: Lymphoid tissue and liver of a living nude female mouse
Experimental: Preliminary PET images were acquired for 10 min using a 15 cm field of view (FOV); CT images were acquired for fusion using a 7 cm FOV and automatically “stitched” and fused to the PET imaging in the reconstruction software (Albira Suite, Bruker). […] Image data were decay corrected to injection time (Albira, Bruker) and expressed as % ID/cc or SUV as indicated (PMOD, PMOD Technologies). Actual injected dose was calculated based on measuring the pre- and post-injection activity in the syringe with a dose calibrator (Capintec) and mice were individually weighed to calculate individual standardized uptake values (SUV).
In vivo whole body biodistribution and blocking experiments were performed using a small animal PET/CT scanner after the injection of ^18F-Talazoparib (˜100 μCi) in a nude female mouse; images were acquired two hours post injection and decay corrected to the injection time.

MCF-7 empty vector cells = test: Cellular uptake of ^18F-Talazoparib, MCF-7 empty vector cells; format: cell-based
Experimental: as §1

PARP1 [5] = molecular target: T2, PARP1 (Homo sapiens, UniProt P09874); test: PARP1 apoptosis assay kit (Trevigen), inhibition of purified PARP1 enzyme activity; format: biochemical; details: racemic mixture, three replicates per concentration
[6] = humans, eight subjects with cancer and eight healthy volunteers; cited from earlier work
[7] = mouse models, cited from earlier work
PARP1 [8] = molecular target: T2, PARP1; details: purified enzyme assays, background values; cited from earlier work

T1 sequence (P11103 whole entry): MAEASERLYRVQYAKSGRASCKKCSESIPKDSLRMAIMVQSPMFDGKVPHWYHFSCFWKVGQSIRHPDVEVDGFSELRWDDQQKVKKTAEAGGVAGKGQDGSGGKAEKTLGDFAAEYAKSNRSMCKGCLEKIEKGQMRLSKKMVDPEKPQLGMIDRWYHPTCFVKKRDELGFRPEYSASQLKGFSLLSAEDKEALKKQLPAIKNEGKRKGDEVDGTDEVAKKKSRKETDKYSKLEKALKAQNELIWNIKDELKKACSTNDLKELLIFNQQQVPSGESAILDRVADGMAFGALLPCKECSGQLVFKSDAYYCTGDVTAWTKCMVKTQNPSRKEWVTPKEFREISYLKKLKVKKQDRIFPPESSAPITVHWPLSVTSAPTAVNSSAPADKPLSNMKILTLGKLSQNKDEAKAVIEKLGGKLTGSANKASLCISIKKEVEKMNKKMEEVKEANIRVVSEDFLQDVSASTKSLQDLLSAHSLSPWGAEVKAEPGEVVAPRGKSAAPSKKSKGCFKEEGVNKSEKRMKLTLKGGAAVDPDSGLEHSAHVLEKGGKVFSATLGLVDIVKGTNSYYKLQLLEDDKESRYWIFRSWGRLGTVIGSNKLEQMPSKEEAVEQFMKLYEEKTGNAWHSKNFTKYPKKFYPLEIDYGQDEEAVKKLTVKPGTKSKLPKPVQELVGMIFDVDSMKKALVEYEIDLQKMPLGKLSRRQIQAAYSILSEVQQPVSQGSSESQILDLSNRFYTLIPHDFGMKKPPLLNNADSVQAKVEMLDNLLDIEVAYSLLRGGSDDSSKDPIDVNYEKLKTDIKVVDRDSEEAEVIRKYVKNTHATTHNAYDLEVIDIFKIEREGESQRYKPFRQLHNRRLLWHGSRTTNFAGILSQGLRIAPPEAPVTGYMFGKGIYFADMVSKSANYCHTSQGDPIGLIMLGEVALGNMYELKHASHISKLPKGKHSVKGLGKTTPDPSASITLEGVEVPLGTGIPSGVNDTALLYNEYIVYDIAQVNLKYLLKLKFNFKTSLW
T2 sequence (P09874 whole entry): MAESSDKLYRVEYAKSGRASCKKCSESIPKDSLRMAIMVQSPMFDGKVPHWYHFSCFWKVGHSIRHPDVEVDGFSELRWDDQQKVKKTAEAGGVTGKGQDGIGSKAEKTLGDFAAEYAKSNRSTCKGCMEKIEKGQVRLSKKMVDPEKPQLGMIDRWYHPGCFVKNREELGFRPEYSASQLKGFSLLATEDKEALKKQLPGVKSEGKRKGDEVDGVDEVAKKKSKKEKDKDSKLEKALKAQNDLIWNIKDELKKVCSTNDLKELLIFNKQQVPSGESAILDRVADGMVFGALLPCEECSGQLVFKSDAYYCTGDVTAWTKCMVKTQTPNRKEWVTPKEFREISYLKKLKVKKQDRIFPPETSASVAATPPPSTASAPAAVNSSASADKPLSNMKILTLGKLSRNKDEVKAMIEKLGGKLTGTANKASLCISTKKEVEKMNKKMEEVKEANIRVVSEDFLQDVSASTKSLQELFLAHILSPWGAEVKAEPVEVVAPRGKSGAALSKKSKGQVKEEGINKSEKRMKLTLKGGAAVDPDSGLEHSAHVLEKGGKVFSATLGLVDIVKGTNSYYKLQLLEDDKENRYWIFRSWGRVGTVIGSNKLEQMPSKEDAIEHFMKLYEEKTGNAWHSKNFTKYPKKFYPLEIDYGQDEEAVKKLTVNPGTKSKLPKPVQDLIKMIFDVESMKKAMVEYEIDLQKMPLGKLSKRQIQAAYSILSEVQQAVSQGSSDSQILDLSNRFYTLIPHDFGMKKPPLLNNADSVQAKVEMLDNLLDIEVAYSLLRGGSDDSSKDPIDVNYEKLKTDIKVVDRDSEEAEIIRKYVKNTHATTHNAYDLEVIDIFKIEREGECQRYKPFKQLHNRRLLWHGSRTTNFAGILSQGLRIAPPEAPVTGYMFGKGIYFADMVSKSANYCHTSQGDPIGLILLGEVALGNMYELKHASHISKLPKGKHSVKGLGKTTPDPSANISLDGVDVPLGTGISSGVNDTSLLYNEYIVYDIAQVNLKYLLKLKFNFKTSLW

In the case of `Cn1ncnc1C1c2n[nH]c(=O)c3cc([18F])cc(c23)NC1c1ccc(F)cc1` (stereo not drawn) [^18F-Talazoparib, 5-[^18F]fluoro-8-(4-fluorophenyl)-9-(1-methyl·1H·1,2,4-triazol-5-yl)-2,7,8,9-tetrahydro-3H-pyrido[4,3,2-de]phthalazin-3-one], the “MDR1 Pgp transport substrate” value [1] is reported as “recognized as a transport substrate by MDR1 Pgp”, the “basal retention at 4° C.” value ([1]; MDR1 Pgp expressed, 4° C.) is reported as “further reduced” and the “net retention of tracer” value ([1]; MDR1 Pgp expressed, 37° C., 120 min) is reported as “drastic decrease in the net retention”. The “basal retention with excess cold Talazoparib” value ([1]; MDR1 Pgp expressed, excess cold Talazoparib) was “fully displaced”, the “cellular retention with Pgp-mediated efflux inhibited” value ([1]; MDR1 Pgp expressed, with LY or CP) was “increased back to levels compared to MCF-7 cells lacking MDR1 Pgp” and the shelf stability [2] was “up to 4 h”. The “stable in full human plasma” value [3] was “up to 4 h”, the “blocking of lymphoid tissue and liver uptake by cold Talazoparib” value (PARP1 [4]; 0.3 mg/kg cold Talazoparib IV 60 minutes before tracer) was “could be blocked by excess cold Talazoparib; also recorded: blockade of target engagement of PARP1” and the excretion pathway (PARP1 [4]; 2 hr static images, vehicle-treated nude mice) was “mixed excretion pathway (renal and hepatobiliary clearance)”. For the same compound, the “tissue uptake on PET images” value (PARP1 [4]; nude female mouse, ~100 μCi, two hours post injection) was “uptake in the lymphoid tissue (LT) located at the base of the neck, in the liver (L), and in excretory organs, such as bladder and intestine”, the “cell uptake in presence of excess non-radioactive Talazoparib” value (MCF-7 empty vector cells; 37° C., 100 nM non-radioactive Talazoparib preincubated 30 min) was “completely blocked” and the “cell uptake of tracer” value (MCF-7 empty vector cells; 120 min incubation at 37° C., compared to 4° C.) was “high uptake of the tracer compared to cells incubated at 4 °C”. The “effect of MDR inhibitors on cell uptake” value (MCF-7 empty vector cells; LY-335979 or CP-100356 preincubated 30 min) was “no effect”.
With “methyl 2-(4-bromophenyl)-7-fluoro-3-(1-methyl-1H-1,2,4-triazol-5-yl)-4-oxo-1,2,3,4-tetrahydroquinoline-5-carboxylate [Compound 1]” the IC50 (PARP1 [5]) was 2.33 nM.
For `O=C1NCCn2c(-c3ccc(OCC[18F])cc3)nc3cccc1c32` [^18F-FTT], the “organ uptake on PET imaging” value [6] is listed as “high uptake in spleen, pancreas, and liver”, the “intact parent molecule observed in the blood” value ([7]; after 5 minutes) is listed as 55% and the “intact parent molecule observed in the blood” value ([7]; after 30 min) is listed as 13%.
For `O=C1NCCn2c(-c3ccc(OCCF)cc3)nc3cccc1c32` [^18F-FTT], the IC50 (PARP1 [8]) is listed as 6.3 nM.
